The structures appear in SMILES notation.

Our source for the Ki values is US8501446B2 (Vertex Pharmaceuticals Incorporated, priority 2004, dated 2013).

One assay concerns the target T1, JAK3 (Homo sapiens, UniProt P52333).
T1 sequence (P52333 1-1124): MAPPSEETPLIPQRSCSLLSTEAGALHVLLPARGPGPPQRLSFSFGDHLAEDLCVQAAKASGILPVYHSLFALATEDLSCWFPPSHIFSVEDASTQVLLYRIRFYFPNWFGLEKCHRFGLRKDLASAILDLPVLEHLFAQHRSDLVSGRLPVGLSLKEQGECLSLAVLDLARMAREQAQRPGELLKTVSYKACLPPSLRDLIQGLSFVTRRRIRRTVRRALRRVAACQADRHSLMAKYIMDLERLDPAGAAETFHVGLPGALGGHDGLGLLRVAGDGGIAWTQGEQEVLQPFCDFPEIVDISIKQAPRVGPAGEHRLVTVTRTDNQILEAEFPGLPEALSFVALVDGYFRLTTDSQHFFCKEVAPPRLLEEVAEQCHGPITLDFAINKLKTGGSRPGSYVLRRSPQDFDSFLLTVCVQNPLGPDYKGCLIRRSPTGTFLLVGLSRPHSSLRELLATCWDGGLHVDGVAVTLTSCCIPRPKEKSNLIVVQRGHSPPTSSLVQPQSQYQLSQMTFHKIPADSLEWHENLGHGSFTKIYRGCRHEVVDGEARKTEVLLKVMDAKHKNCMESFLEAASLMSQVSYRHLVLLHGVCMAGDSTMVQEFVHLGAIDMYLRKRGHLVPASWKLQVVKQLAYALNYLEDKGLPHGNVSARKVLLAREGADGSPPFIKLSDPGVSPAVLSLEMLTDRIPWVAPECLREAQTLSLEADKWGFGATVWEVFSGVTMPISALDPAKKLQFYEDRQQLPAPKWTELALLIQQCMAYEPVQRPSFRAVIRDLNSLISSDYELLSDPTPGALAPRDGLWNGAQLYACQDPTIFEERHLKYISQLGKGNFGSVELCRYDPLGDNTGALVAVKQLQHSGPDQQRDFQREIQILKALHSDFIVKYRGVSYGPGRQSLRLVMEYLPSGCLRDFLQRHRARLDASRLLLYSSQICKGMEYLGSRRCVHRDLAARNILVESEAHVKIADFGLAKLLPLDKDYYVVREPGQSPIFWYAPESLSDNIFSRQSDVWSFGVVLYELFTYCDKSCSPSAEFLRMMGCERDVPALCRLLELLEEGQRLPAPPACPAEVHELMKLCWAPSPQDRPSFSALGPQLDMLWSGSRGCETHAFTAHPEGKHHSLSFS
Put plainly: JAK3 inhibition assay (standard radioactive enzyme assay). To be noted: average Ki if more than one value determined. Format: biochemical.

The target of the next assay is T2, ROCK I (AA 6-553) (Homo sapiens, UniProt Q13464).
T2 construct: ROCK I (AA 6-553)
T2 sequence (Q13464 6-553, species assumed): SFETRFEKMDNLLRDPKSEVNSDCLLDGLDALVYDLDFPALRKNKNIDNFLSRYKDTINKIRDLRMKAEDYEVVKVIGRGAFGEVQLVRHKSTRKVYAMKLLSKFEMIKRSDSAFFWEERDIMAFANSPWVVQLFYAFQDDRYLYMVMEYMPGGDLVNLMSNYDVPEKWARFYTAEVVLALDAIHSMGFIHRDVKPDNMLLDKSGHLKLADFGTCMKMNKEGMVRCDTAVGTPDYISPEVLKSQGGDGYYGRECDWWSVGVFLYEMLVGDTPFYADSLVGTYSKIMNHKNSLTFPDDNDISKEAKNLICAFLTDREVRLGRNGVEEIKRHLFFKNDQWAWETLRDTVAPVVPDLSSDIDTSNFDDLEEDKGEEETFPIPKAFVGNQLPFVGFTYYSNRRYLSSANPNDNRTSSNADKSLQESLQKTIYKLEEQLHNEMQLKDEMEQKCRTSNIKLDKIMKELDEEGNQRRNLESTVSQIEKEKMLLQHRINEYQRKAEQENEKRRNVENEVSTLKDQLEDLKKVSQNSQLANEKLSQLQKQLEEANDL
Put plainly: ROCK inhibition assay, standard coupled enzyme system ("Enzyme"). Format: biochemical. Conditions: enzyme-linked assay. The procedure, abridged: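 ROCK I (AA 6-553) at 45 nM and 30 °C with 45 μM ATP and 200 μM peptide, in 100 mM HEPES pH 7.5, 10 mM MgCl2, 25 mM NaCl, 2 mM DTT, 1.5% DMSO. ADP output read by a PK/LDH coupled system: 2.5 mM PEP, 350 μM NADH, 30 μg/ml PK, 10 μg/ml LDH.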

For orientation: Ki means the dissociation constant of the complex between target and ligand, obtained from inhibition or displacement. Regarding `COC(=O)c1cnc2[nH]cc(-c3cccc(N4C[C@@H](C)N(C(C)=O)[C@@H](C)C4)n3)c2c1` [Compound 35], the Ki on JAK3 and on ROCK I (AA 6-553) was less than 500 nM each time.

Turning to `C[C@H](Nc1cccc(-c2c[nH]c3ncc(Cl)cc23)n1)c1ccc(F)cc1` [Compound 395], the inhibition constant (Ki) on JAK3 was less than 500 nM; on ROCK I (AA 6-553) it was 500 to 5000 nM.

For `COc1cnc2[nH]cc(-c3cccc(N4C[C@@H](C)N(C(C)=O)[C@@H](C)C4)n3)c2c1` [Compound 18], the Ki was less than 500 nM at JAK3 and 500 to 5000 nM on ROCK I (AA 6-553).

For the molecule `C[C@H](Nc1nc(-c2c[nH]c3ncc(Cl)cc23)ncc1F)C(=O)NCC(F)(F)F` [Compound 369], the values for the Ki at JAK3 and on ROCK I (AA 6-553) were less than 500 nM and 500 to 5000 nM, respectively.

In the case of `CCOC(=O)N1CCCN(c2nccc(-c3c[nH]c4ncc(OC)cc34)n2)CC1` [Compound 33], the Ki on JAK3 and at ROCK I (AA 6-553) was less than 500 nM in each case.

Take `CC(=O)N1[C@H](C)CN(c2cccc(-c3c[nH]c4ncc(Cl)cc34)n2)C[C@@H]1C` [Compound 19]: the Ki at JAK3 and at ROCK I (AA 6-553) was less than 500 nM throughout.
